The target of one data set is Bile salt export pump (Homo sapiens, UniProt O95342). The data set can be described thus: Inhibition of human BSEP overexpressed in Sf9 cell membrane vesicles assessed as uptake of [3H]-taurocholate in presence of ATP measured after 15 to 20 mins by membrane vesicle transport assay. The data set is classed as ADME, cell-based.
Data set [1] addresses ATP-binding cassette sub-family C member 2 (Homo sapiens, UniProt Q92887). The data set can be described thus: Inhibition of human MRP2 overexpressed in Sf9 cell membrane vesicles assessed as uptake of [3H]-estradiol-17beta-D-glucuronide in presence of ATP and GSH measured after 20 mins by membrane vesicle transport assay.
Data set [2] concerns the target ATP-binding cassette sub-family C member 3 (Homo sapiens, UniProt O15438). The data set can be described thus: Inhibition of human MRP3 overexpressed in Sf9 insect cell membrane vesicles assessed as uptake of [3H]-estradiol-17beta-D-glucuronide in presence of ATP and GSH measured after 10 mins by membrane vesicle transport assay. The data set is classed as ADME, cell-based.

Data set [3] addresses T1, ATP-binding cassette sub-family C member 4 (Homo sapiens, UniProt O15439).
T1 sequence (O15439 whole entry): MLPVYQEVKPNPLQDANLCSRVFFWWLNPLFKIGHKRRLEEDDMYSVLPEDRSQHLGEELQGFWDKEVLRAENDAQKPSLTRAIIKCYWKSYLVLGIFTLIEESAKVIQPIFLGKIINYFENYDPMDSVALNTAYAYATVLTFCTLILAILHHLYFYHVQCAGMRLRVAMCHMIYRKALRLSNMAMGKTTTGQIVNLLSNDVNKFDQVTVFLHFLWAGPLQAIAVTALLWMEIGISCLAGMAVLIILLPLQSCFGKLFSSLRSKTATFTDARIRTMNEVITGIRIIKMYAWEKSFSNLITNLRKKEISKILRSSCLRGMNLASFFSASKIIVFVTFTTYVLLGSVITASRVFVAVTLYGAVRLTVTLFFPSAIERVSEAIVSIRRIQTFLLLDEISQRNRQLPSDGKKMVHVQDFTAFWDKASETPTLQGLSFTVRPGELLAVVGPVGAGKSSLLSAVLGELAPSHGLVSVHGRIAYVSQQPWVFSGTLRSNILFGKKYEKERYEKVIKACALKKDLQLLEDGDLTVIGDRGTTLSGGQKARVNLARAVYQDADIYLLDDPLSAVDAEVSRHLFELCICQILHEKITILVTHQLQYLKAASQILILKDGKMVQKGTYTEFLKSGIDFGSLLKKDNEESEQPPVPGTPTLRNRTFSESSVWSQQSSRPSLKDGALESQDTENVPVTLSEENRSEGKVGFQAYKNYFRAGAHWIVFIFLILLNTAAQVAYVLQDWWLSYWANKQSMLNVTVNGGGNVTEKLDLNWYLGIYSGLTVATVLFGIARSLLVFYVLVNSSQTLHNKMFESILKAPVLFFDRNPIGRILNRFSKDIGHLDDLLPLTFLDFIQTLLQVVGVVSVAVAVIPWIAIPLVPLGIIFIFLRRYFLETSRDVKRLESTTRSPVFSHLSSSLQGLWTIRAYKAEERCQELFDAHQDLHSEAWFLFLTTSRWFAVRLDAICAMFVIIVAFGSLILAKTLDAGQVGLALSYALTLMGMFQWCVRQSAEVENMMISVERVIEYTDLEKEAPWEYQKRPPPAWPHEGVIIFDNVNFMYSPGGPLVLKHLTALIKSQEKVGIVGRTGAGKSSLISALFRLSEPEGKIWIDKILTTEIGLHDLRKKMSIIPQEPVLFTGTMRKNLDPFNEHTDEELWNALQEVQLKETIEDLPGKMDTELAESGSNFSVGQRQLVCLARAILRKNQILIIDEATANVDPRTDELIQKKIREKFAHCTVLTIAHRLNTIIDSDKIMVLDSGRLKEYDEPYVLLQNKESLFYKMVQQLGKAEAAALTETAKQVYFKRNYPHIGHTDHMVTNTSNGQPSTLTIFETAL
The data set can be described thus: Inhibition of human MRP4 overexpressed in Sf9 cell membrane vesicles assessed as uptake of [3H]-estradiol-17beta-D-glucuronide in presence of ATP and GSH measured after 20 mins by membrane vesicle transport assay. The data set is classed as ADME, cell-based.

A short description of data set [4]: AUC in human at 0.075 to 0.26 mg/kg, po after 24 hrs. The conditions noted are these: in vivo. It counts as ADME, organism-based.
In a further data set the test system is Homo sapiens. The data set can be described thus: Drug concentration at steady state in human at 0.075 to 0.26 mg/kg, po after 24 hrs. It counts as ADME, organism-based. The conditions noted are these: in vivo.
Data set [5] in a line: Ratio of drug concentration at steady state in human at 0.075 to 0.26 mg/kg, po after 24 hrs to IC50 for human BSEP overexpressed in Sf9 insect cells. The data set is classed as ADME, organism-based. The conditions noted are these: in vivo.
A short description of data set [6]: Ratio of drug concentration at steady state in human at 0.075 to 0.26 mg/kg, po after 24 hrs to IC50 for human MRP2 overexpressed in Sf9 insect cells. The conditions noted are these: in vivo. It counts as ADME, organism-based.
The nature of data set [7]: AUC in alopecia patient at 1 mg, po QD after 24 hrs. The data set is classed as ADME, organism-based. Also noted: time < 24 hr, dose 1 mg, route oral. The conditions noted are these: human, in vivo.
Data set [8] is described as follows: AUC in benign prostate hyperplasia patient at 5 mg, po QD after 24 hrs. It counts as ADME, organism-based. Also noted: time < 24 hr, dose 5 mg, route oral. The conditions noted are these: male, human, in vivo.
A short description of data set [9]: Drug concentration at steady state in alopecia patient at 1 mg, po QD after 24 hrs. It counts as ADME, organism-based. The conditions noted are these: human, in vivo, read-out: Css.
The nature of data set [10]: Drug concentration at steady state in benign prostate hyperplasia patient at 5 mg, po QD after 24 hrs. The conditions noted are these: male, human, in vivo, read-out: Css. It counts as ADME, organism-based.
The nature of data set [11]: Ratio of drug concentration at steady state in human in alopecia patient at 1 mg, po QD after 24 hrs to IC50 for human BSEP overexpressed in Sf9 insect cells. The data set is classed as ADME, organism-based. The conditions noted are these: in vivo.
Data set [12] in a line: Ratio of drug concentration at steady state in human in benign prostate hyperplasia patient at 5 mg, po QD after 24 hrs to IC50 for human BSEP overexpressed in Sf9 insect cells. The data set is classed as ADME, organism-based. The conditions noted are these: in vivo.
Data set [13] is described as follows: Ratio of drug concentration at steady state in human in alopecia patient at 1 mg, po QD after 24 hrs to IC50 for human MRP4 overexpressed in Sf9 insect cells. The data set is classed as ADME, organism-based. The conditions noted are these: in vivo.
Data set [14] is described as follows: Ratio of drug concentration at steady state in human in benign prostate hyperplasia patient at 5 mg, po QD after 24 hrs to IC50 for human MRP4 overexpressed in Sf9 insect cells. The data set is classed as ADME, organism-based. The conditions noted are these: in vivo.
Data set [15] in a line: AUC in human at 20 to 80 mg, po QD after 24 hrs. It counts as ADME, organism-based. The conditions noted are these: in vivo.
Data set [16] in a line: Drug concentration at steady state in human at 20 to 80 mg, po QD after 24 hrs. The conditions noted are these: in vivo, read-out: Css. The data set is classed as ADME, organism-based.
Data set [17] in a line: Ratio of drug concentration at steady state in human at 20 to 80 mg, po QD after 24 hrs to IC50 for human BSEP overexpressed in Sf9 insect cells. The data set is classed as ADME, organism-based. The conditions noted are these: in vivo.
A short description of data set [18]: Ratio of drug concentration at steady state in human at 20 to 80 mg, po QD after 24 hrs to IC50 for human MRP3 overexpressed in Sf9 insect cells. The conditions noted are these: in vivo. It counts as ADME, organism-based.
The nature of data set [19]: Ratio of drug concentration at steady state in human at 20 to 80 mg, po QD after 24 hrs to IC50 for human MRP4 overexpressed in Sf9 insect cells. The data set is classed as ADME, organism-based. The conditions noted are these: in vivo.
The nature of data set [20]: AUC in human at 400 mg, po BID after 12 hrs. It counts as ADME, organism-based. Also noted: time < 12 hr, dose 400 mg, route oral. The conditions noted are these: in vivo.
The nature of data set [21]: Drug concentration at steady state in human at 400 mg, po BID after 12 hrs. It counts as ADME, organism-based. The conditions noted are these: in vivo, read-out: Css.
Data set [22] can be described thus: Ratio of drug concentration at steady state in human at 400 mg, po BID after 12 hrs to IC50 for human BSEP overexpressed in Sf9 insect cells. The data set is classed as ADME, organism-based. The conditions noted are these: in vivo.

Some results are limits rather than exact numbers.

Chain of ATP-binding cassette sub-family C member 2 (Q92887 whole entry): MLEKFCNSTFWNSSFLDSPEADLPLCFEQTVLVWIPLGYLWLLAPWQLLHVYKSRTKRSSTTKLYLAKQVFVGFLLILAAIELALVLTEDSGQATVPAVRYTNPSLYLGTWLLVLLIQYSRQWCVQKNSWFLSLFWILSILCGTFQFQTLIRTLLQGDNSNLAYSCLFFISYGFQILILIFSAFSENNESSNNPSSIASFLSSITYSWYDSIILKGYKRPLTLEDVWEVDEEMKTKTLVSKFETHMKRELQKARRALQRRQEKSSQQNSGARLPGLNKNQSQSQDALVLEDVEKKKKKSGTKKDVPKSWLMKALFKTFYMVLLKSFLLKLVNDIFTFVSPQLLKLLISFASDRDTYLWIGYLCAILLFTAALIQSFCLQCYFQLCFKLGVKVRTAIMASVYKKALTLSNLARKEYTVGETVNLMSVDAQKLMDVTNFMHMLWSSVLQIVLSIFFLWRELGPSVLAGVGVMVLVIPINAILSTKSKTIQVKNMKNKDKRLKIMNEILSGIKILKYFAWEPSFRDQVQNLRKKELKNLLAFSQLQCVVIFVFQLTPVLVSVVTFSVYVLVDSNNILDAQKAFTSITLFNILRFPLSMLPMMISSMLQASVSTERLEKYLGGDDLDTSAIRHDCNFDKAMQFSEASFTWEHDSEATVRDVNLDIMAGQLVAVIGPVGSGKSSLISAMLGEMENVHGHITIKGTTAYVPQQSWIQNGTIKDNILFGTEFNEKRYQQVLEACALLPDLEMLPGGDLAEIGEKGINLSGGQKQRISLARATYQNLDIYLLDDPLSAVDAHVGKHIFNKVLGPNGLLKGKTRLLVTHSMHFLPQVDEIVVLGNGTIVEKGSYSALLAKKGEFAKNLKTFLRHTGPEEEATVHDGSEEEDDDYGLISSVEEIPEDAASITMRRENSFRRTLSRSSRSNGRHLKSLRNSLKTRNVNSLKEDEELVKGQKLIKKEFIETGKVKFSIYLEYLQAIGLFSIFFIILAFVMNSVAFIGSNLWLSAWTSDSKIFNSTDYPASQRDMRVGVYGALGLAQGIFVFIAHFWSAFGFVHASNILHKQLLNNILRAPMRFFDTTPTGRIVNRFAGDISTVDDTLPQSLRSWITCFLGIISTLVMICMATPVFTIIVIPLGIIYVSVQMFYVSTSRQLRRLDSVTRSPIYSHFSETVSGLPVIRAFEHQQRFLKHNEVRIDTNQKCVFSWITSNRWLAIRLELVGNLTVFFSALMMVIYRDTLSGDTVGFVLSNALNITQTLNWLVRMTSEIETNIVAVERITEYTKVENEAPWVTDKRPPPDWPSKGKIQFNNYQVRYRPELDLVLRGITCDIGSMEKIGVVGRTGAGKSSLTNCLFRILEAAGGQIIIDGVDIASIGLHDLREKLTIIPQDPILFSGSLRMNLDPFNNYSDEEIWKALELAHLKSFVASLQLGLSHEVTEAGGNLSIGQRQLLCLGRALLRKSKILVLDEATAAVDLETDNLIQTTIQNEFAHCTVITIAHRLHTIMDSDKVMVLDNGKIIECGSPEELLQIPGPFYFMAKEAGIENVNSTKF
Chain of ATP-binding cassette sub-family C member 3 (O15438 whole entry): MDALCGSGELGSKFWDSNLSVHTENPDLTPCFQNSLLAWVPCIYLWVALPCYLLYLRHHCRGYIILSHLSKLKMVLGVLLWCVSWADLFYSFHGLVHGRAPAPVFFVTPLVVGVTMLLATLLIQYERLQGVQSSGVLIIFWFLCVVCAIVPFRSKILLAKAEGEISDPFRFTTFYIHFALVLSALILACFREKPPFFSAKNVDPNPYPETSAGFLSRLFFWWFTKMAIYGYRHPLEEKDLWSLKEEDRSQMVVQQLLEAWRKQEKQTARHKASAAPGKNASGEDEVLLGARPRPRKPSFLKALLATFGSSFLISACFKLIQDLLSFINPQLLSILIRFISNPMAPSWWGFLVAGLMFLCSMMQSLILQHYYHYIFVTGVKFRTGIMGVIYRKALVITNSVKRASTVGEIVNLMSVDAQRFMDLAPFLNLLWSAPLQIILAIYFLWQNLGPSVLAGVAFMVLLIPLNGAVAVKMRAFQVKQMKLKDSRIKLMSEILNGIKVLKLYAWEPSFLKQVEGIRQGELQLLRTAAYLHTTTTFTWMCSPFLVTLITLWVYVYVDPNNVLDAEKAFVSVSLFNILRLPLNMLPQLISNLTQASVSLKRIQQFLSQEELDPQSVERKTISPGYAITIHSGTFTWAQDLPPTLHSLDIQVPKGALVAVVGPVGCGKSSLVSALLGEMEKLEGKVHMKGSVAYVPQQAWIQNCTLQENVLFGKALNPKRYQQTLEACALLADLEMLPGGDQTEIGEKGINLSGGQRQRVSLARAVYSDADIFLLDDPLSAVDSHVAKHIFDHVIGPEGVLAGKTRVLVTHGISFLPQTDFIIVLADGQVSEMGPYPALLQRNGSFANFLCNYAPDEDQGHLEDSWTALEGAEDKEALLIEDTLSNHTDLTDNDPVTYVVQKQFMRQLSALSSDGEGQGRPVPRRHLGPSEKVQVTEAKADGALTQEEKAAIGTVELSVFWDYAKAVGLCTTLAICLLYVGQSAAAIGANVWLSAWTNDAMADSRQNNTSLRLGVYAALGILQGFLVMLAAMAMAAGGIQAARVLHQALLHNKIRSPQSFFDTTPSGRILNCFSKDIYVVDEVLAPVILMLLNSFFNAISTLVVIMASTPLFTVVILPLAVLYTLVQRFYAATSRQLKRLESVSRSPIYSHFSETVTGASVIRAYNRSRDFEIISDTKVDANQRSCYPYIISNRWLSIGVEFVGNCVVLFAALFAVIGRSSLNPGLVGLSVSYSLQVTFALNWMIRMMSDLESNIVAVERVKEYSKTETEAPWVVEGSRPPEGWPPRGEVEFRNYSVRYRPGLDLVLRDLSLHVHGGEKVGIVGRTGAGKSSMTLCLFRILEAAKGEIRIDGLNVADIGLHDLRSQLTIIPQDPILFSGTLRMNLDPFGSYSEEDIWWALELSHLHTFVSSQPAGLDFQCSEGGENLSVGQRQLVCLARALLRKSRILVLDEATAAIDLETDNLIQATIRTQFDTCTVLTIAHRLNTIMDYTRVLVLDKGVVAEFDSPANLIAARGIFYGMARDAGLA
Chain of Bile salt export pump (O95342 whole entry): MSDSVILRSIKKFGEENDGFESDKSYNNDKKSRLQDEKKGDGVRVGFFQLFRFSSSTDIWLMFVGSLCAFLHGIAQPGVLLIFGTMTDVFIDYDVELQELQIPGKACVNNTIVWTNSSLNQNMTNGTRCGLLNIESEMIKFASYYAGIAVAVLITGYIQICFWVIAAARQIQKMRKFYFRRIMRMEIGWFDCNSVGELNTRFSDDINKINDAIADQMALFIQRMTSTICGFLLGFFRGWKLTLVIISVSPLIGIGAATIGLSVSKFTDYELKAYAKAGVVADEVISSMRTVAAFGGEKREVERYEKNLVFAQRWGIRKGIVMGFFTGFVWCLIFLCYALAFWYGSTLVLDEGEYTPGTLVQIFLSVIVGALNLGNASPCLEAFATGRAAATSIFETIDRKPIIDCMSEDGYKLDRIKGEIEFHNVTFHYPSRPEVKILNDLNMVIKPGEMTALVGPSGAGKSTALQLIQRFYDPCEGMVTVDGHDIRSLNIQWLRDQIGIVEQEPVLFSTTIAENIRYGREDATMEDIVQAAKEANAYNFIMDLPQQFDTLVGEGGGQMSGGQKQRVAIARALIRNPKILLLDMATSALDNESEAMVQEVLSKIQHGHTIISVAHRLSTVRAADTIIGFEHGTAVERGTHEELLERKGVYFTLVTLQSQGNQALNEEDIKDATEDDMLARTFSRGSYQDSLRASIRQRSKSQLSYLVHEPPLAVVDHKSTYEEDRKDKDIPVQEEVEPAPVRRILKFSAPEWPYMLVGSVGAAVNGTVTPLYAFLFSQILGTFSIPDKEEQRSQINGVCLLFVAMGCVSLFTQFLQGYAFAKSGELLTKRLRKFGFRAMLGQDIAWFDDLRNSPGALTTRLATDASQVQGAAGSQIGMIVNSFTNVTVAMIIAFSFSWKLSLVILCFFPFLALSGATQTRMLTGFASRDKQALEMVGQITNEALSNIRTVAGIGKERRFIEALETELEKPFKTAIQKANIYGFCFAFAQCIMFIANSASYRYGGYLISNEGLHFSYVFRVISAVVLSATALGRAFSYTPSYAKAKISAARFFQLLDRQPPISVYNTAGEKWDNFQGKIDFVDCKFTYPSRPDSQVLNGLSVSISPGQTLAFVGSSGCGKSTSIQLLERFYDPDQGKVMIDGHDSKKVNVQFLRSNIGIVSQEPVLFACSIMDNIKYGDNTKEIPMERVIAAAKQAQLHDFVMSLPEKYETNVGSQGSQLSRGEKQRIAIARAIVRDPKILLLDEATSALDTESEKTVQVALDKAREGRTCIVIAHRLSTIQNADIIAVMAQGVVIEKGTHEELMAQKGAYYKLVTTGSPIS

What is called IC50 is the concentration that gives 50% inhibition. The AUC is concentration integrated over time. High values mean high exposure, low ones low exposure. With `C=CC[C@@H]1/C=C(\C)C[C@H](C)C[C@H](OC)[C@H]2O[C@@](O)(C(=O)C(=O)N3CCCC[C@H]3C(=O)O[C@H](/C(C)=C/[C@@H]3CC[C@@H](O)[C@H](OC)C3)[C@H](C)[C@@H](O)CC1=O)[C@H](C)C[C@@H]2OC` [TACROLIMUS ANHYDROUS], the IC50 was 7.18 µM at Bile salt export pump, 40.3 µM in data set [1], more than 133 µM in data set [2] and more than 133 µM in [3]. Besides, in [4], the AUC at 24 h worked out at 252 nM·h. For the same compound, the Css in the data set on Homo sapiens amounted to 0.011 µM. The values for the Ratio in data set [5] and in data set [6] were 0.001 and 0, respectively.

`CC(C)(C)NC(=O)[C@H]1CC[C@H]2[C@@H]3CC[C@H]4NC(=O)C=C[C@]4(C)[C@H]3CC[C@]12C` [FINASTERIDE]: the figures for the IC50 in data set [1], in data set [2] and in [3] were more than 133 µM, more than 133 µM and 51 µM, respectively. Moreover, the AUC at 24 h in data set [7] and in [8] was 993 nM·h in each case. For the same compound, the concentration at 24 h in data set [9] and in data set [10] was 0.041 µM in each case. For the same compound, the Ratio is 0.00147 in data set [11], 0.00147 in data set [12], 0.001 in data set [13] and 0.001 in data set [14].

For the compound `CCCc1nc2c(C)cc(-c3nc4ccccc4n3C)cc2n1Cc1ccc(-c2ccccc2C(=O)O)cc1`, the figures for the IC50 in [1], in data set [2] and in data set [3] were more than 133 µM, 60 µM and 36 µM, respectively. This compound also registered an AUC at 24 h in [15] of 3570 nM·h. Also, the concentration at 24 h in data set [16] came to 0.149 µM. Further, the figures for the Ratio in data set [17], in data set [18] and in data set [19] were 0.009, 0.002 and 0.004, respectively.

Regarding `CCCCc1oc2ccc(NS(C)(=O)=O)cc2c1C(=O)c1ccc(OCCCN(CCCC)CCCC)cc1.Cl` [DRONEDARONE HYDROCHLORIDE], the IC50 on Bile salt export pump is 73.9 µM; in [1], more than 133 µM; in data set [2], more than 133 µM; in [3], more than 133 µM. Moreover, in data set [20], the AUC at 12 h was 1600 nM·h. Moreover, in data set [21], the concentration at 12 h was 0.133 µM. In data set [22], the Ratio was determined as 0.002.
